In patent US20170136102A1, “PHAGE-DERIVED COMPOSITIONS FOR IMPROVED MYC[…]” (priority 2014, published 2017):
Values after ≈ are worked out from the molar mass of the structure shown. Like-named read-outs stand apart in the source and are kept apart here.

Key:
Type in all cases: cell-based
M. smegmatis [1] = experiment: Broth checkerboard MIC, synergy of LysB with anti-TB drugs; settings: for MIC: Mycolicibacterium smegmatis
M. smegmatis [2] = system: M. smegmatis
M. bovis BCG = experiment: microbe, parasite or virus in culture; settings: for FIC index: M. bovis BCG (Dubos), drug in combination with LysB, <0.5 indicates synergy; for MIC: Mycobacterium tuberculosis variant bovis BCG, BCG

Row | SMILES | FIC index (M. smegmatis [1]) | MIC (M. smegmatis [1]) | Log10 CFU reduction (M. smegmatis [2]; M. smegmatis, 24 hrs, Ethambutol group) | FIC index (M. bovis BCG) | MIC (M. bovis BCG) | Log10 CFU reduction (M. smegmatis [2]; M. smegmatis, 24 hrs, INH group) | Log10 CFU reduction (M. smegmatis [2])
1 | CC[C@@H](CO)NCCN[C@@H](CC)CO [Ethambutol] | 0.06 | 2 µg/mL | <1 Log10 CFU | 0.15 | 16 µg/mL (≈ 78.3 µM) |  | 
2 | NNC(=O)c1ccncc1 [INH, Isoniazid] | 0.13 | 8 µg/mL |  | 0.47 | 0.03 µg/mL (≈ 0.219 µM) | <1 Log10 CFU | 
3 | CO[C@H]1/C=C/O[C@@]2(C)Oc3c(C)c(O)c4c(O)c(c(/C=N/N5CCN(C)CC5)c(O)c4c3C2=O)NC(=O)/C(C)=C\C=C\[C@H](C)[C@H](O)[C@@H](C)[C@@H](O)[C@@H](C)[C@H](OC(C)=O)[C@@H]1C [Rifampicin] | 0.06 | 4 µg/mL |  | 0.37 | 0.004 µg/mL (≈ 0.00486 µM) |  | <1 Log10 CFU
